Results on four compounds are retold here after publication PMC4336573 (Chemistry & biology, 2015).

For orientation: IC50 means the concentration that inhibits the measured activity by half.

The target in the assay is T1, CBX7ChD (Homo sapiens, UniProt O95931).
T1 sequence (O95931 11-69 limits assumed): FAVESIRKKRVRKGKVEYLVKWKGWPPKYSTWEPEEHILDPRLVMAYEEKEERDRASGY
In kind it is binding.

Consider `O=C(O)C1=CC(=C(c2ccc(O)c(C(=O)O)c2)c2ccc(O)c(C(=O)O)c2)C=CC1=O` [Aurin tricarboxylic acid], for which inhibition was half-maximal at 5.5 µM (IC50).
With `Cc1cc(-c2ccc(/N=N/c3ccc4c(S(=O)(=O)O)cc(S(=O)(=O)O)c(N)c4c3O)c(C)c2)ccc1/N=N/c1ccc2c(S(=O)(=O)O)cc(S(=O)(=O)O)c(N)c2c1O` [Evans blue], the IC50 was 3.9 µM.
Next, `O=C(O)c1cc(O)c2c(c1)[C@H]([C@H]1c3cc(C(=O)O)cc(O)c3C(=O)c3c(O[C@@H]4O[C@H](CO)[C@@H](O)[C@H](O)[C@H]4O)cccc31)c1cccc(O[C@@H]3O[C@H](CO)[C@@H](O)[C@H](O)[C@H]3O)c1C2=O` [Sennoside A]: 33.3 µM; `Cc1cc(-c2ccc(/N=N/c3c(S(=O)(=O)O)cc4cc(S(=O)(=O)O)cc(N)c4c3O)c(C)c2)ccc1/N=N/c1c(S(=O)(=O)O)cc2cc(S(=O)(=O)O)cc(N)c2c1O` [Trypan blue]: 7.5 µM.
